Measurements reported in article PMC2831066, “The Alzheimer's Disease-Associated Amyloid β-Protein Is an Antimicrobial Peptide” (PLoS ONE, 2010).
Converted amounts (≈) assume the structure as drawn. Read-outs that look alike come from different tables or passages of the source. No end group written: not given here.

Columns and labels:
E. faecalis = assay: Growth curves of E. faecalis with peptide, CFU count; assay type: cell-based, Enterococcus faecalis; conditions: 25 µg/ml peptide; growth with time by CFU; six experiments, four replicates (Figure 1A)
Procedure: (§1) Serial dilutions of incubants were prepared and streaked onto the surface of agar. The agar plates were then incubated overnight at 37°C and colonies forming units counted.

Streptococcus agalactiae = assay type: cell-based
Procedure: (§2) Bacteria were cultured aerobically in Mueller-Hinton broth (MHB), Brain and Heart Infusion broth (BHIB), or BHIB supplemented with 1% lysed horse blood and plated on Tryptone Soy Agar (TSA) plates containing 5% defibrinated sheep blood. […] Culture conditions for each organism are included in Table S1. Organisms were subcultured for 2 hrs to generate mid-logarithmic growth cultures for use as inoculates in experiments. Media reagents were obtained from Becton, Dickinson and Company (Sparks, MD).
(§3) Colonies from agar were transferred by sterile loop to growth media and incubated for 2 hrs at 37°C to achieve a McFarland density of 0.5. Bacteria inoculum cell densities were normalized to 5×10^5 cells/ml immediately before use photometrically and subsequently confirmed by colony count. Inoculum of C. albicans contained a cell density of 2.5×10^3 CFU/ml.
(§4) Bulk powdered peptides were first dissolved in 30% trifluoroethanol (TFE) at 1 mg/ml. Five hundred microliter aliquots of the stock solutions were lyophilized and stored under nitrogen at −20°C. Stock solutions at 2 mg/ml were prepared the day of experimentation from the peptide films by solubilizing a second time in either water or 20% TFE. Aβ stocks prepared in water were sonicated and insoluble peptide aggregates pelleted by centrifugation (10 min×16,000 g). Peptide concentrations in stock solutions were determined immediately before use by bicinchoninic acid (BCA) protein assay. […] For MIC experiments, peptides were serially diluted into growth media. For other experiments stocks were diluted into required working buffers. Experiments included controls for peptide buffer vehicle alone.
(§5) Peptide antimicrobial activity was determined as minimal inhibitory concentration (MIC). Experiments identified peptide MIC by broth microdilution susceptibility test in conjunction with CFU and alamar blue assays. Inoculum containing mid-logarithmic phase cells was dispensed into the wells of polypropylene 96-well plates (Fisher, Pittsburgh, PA) containing seven two-fold dilutions of test peptide in growth media. Plates were then incubated aerobically overnight (12 to 18 hrs) at 37°C. Peptide MIC was taken as the lowest concentration able reduce cell growth by CFU and alamar blue assays by at least two-fold and which correlated with the visible loss of a growth button on the bottom of microtiter wells. Experiments were repeated a minimum of three times for each organism, and tests included at least three replicates for each assay condition. Experiments included control serial dilutions of buffer vehicle alone.
as §1
(§6) Microbial growth was determined by following the reduction of the synthetic metabolic substrate resazurin (alamar blue) to a fluorescent product by respiratory enzymes in living cells. Alamar blue assay is used in high throughput screens for antimicrobial agents and is available commercially in kit form from Invitrogen. Microbial growth in experiments was assayed with alamar blue kits according to the manufacturer's instructions. […] Fluorescence signal was measured at excitation of 530 nm and emission at 590 nm.

Staphylococcus aureus = assay type: cell-based
Procedure: as §2, §3, §4, §5, §1, §6

Streptococcus mitis = assay type: cell-based
Procedure: as §2, §3, §4, §5, §1, §6

Streptococcus pneumoniae = assay type: cell-based
Procedure: as §2, §3, §4, §5, §1, §6

Escherichia coli = assay type: cell-based
Procedure: as §2, §3, §4, §5, §1, §6

Enterococcus faecalis = assay type: cell-based
Procedure: as §2, §3, §4, §5, §1, §6

Candida albicans = assay type: cell-based
Procedure: as §2, §3, §4, §5, §1, §6

Streptococcus salivarius = assay type: cell-based
Procedure: as §2, §3, §4, §5, §1, §6

[1] = test system: Staphylococcus epidermidis; assay type: cell-based
Procedure: as §2, §3, §4, §5, §1, §6

Streptococcus pyogenes = assay type: cell-based
Procedure: as §2, §3, §4, §5, §1, §6

Listeria monocytogenes = assay type: cell-based
Procedure: as §2, §3, §4, §5, §1, §6

Pseudomonas aeruginosa = assay type: cell-based
Procedure: as §2, §3, §4, §5, §1, §6

[2] = clinical trial in AD patients; cited from earlier work
[3] = test system: panel of clinically relevant organisms; assay: MIC against panel of clinically relevant organisms, recombinant versus synthetic peptide; assay type: cell-based; conditions: data not shown
Procedure: Aβ and LL-37 peptides were prepared and purified by Dr. James I. Elliott at Yale University (New Haven, CT) using solid-phase peptide synthesis. Scrambled LL-37 peptide was from AnaSpec (San Jose, CA). […] Findings for recombinant and SPPS prepared peptides were equivalent in all experiments.
as §5

MIC (Streptococcus agalactiae) [µg/mL] | MIC (Staphylococcus aureus) [µg/mL] | MIC (Streptococcus mitis) [µg/mL] | MIC (Streptococcus pneumoniae) [µg/mL] | MIC (Escherichia coli) [µg/mL] | MIC (Enterococcus faecalis) [µg/mL] | MIC (Candida albicans; pH 7) [µg/mL] | MIC (Streptococcus salivarius) [µg/mL] | MIC [1] [µg/mL] | MIC (Streptococcus pyogenes) [µg/mL] | MIC (Listeria monocytogenes) [µg/mL] | MIC (Pseudomonas aeruginosa) [µg/mL] | Compound | other results
– | – | – | – | – | – | – | – | – | – | – | – | CC[C@H](C)[C@H](NC(=O)[C@H](CCCCN)NC(=O)[C@H](CCC(=O)O)NC(=O)[C@H](CCCCN)NC(=O)[C@H](CO)NC(=O)[C@H](CCCCN)NC(=O)[C@H](CCCNC(=N)N)NC(=O)[C@H](Cc1ccccc1)NC(=O)[C@H](Cc1ccccc1)NC(=O)[C@H](CC(=O)O)NC(=O)CNC(=O)[C@H](CC(C)C)NC(=O)[C@@H](N)CC(C)C)C(=O)NCC(=O)N[C@@H](CCCCN)C(=O)N[C@@H](CCC(=O)O)C(=O)N[C@@H](Cc1ccccc1)C(=O)N[C@@H](CCCCN)C(=O)N[C@@H](CCCNC(=N)N)C(=O)N[C@H](C(=O)N[C@H](C(=O)N[C@@H](CCC(N)=O)C(=O)N[C@@H](CCCNC(=N)N)C(=O)N[C@H](C(=O)N[C@@H](CCCCN)C(=O)N[C@@H](CC(=O)O)C(=O)N[C@@H](Cc1ccccc1)C(=O)N[C@@H](CC(C)C)C(=O)N[C@@H](CCCNC(=N)N)C(=O)N[C@@H](CC(N)=O)C(=O)N[C@@H](CC(C)C)C(=O)N[C@H](C(=O)N1CCC[C@H]1C(=O)N[C@@H](CCCNC(=N)N)C(=O)N[C@H](C(=O)N[C@@H](CCC(=O)O)C(=O)N[C@@H](CO)C(=O)O)[C@@H](C)O)C(C)C)[C@@H](C)CC)C(C)C)[C@@H](C)CC [LL-37] | Action on E. faecalis growth (bacteriostatic or bactericidal) (E. faecalis): potent bactericidal activity; MIC (Streptococcus agalactiae; Streptococcus agalactiae ATCC 12386, inoculum 5×10^5 cells/ml, mid-logarithmic phase, overnight (12 to 18 hrs) 37°C, visual inspection confirmed by alamar blue and CFU, repeated at least three times): 12.5 µg/mL (≈ 2.78 µM); MIC (Staphylococcus aureus; Staphylococcus aureus ATCC 25923, inoculum 5×10^5 cells/ml, mid-logarithmic phase, overnight (12 to 18 hrs) 37°C, visual inspection confirmed by alamar blue and CFU, repeated at least three times): 6.25 µg/mL (≈ 1.39 µM); MIC (Streptococcus mitis; Streptococcus mitis ATCC 6249, inoculum 5×10^5 cells/ml, mid-logarithmic phase, overnight (12 to 18 hrs) 37°C, visual inspection confirmed by alamar blue and CFU, repeated at least three times): 6.25 µg/mL (≈ 1.39 µM); MIC (Streptococcus pneumoniae; Streptococcus pneumoniae ATCC 49619, inoculum 5×10^5 cells/ml, mid-logarithmic phase, overnight (12 to 18 hrs) 37°C, visual inspection confirmed by alamar blue and CFU, repeated at least three times): 1.56 µg/mL (≈ 0.347 µM); MIC (Escherichia coli; Escherichia coli ATCC 25922, inoculum 5×10^5 cells/ml, mid-logarithmic phase, overnight (12 to 18 hrs) 37°C, visual inspection confirmed by alamar blue and CFU, repeated at least three times): 1.56 µg/mL (≈ 0.347 µM); MIC (Enterococcus faecalis; Enterococcus faecalis ATCC 29212, inoculum 5×10^5 cells/ml, mid-logarithmic phase, overnight (12 to 18 hrs) 37°C, visual inspection confirmed by alamar blue and CFU, repeated at least three times): 6.25 µg/mL (≈ 1.39 µM); MIC (Candida albicans; Candida albicans ATCC 10231, RPMI-1640 with 2% glucose, MOPS pH 7.0, inoculum 2.5×10^3 CFU/ml, mid-logarithmic phase, overnight (12 to 18 hrs) 37°C, visual inspection confirmed by alamar blue and CFU, repeated at least three times): 6.25 µg/mL (≈ 1.39 µM); MIC (Streptococcus salivarius; Streptococcus salivarius ATCC 13419, inoculum 5×10^5 cells/ml, mid-logarithmic phase, overnight (12 to 18 hrs) 37°C, visual inspection confirmed by alamar blue and CFU, repeated at least three times): 50 µg/mL (≈ 11.1 µM); MIC ([1]; Staphylococcus epidermidis ATCC 12228, inoculum 5×10^5 cells/ml, mid-logarithmic phase, overnight (12 to 18 hrs) 37°C, visual inspection confirmed by alamar blue and CFU, repeated at least three times): 25 µg/mL (≈ 5.56 µM); MIC (Streptococcus pyogenes; Streptococcus pyogenes ATCC 19615, inoculum 5×10^5 cells/ml, mid-logarithmic phase, overnight (12 to 18 hrs) 37°C, visual inspection confirmed by alamar blue and CFU, repeated at least three times): 6.25 µg/mL (≈ 1.39 µM); MIC (Listeria monocytogenes; Listeria monocytogenes ATCC 19112, inoculum 5×10^5 cells/ml, mid-logarithmic phase, overnight (12 to 18 hrs) 37°C, visual inspection confirmed by alamar blue and CFU, repeated at least three times): 25 µg/mL (≈ 5.56 µM); MIC (Pseudomonas aeruginosa; Pseudomonas aeruginosa ATCC 27853, inoculum 5×10^5 cells/ml, mid-logarithmic phase, overnight (12 to 18 hrs) 37°C, visual inspection confirmed by alamar blue and CFU, repeated at least three times): 6.25 µg/mL (≈ 1.39 µM)
– | – | – | – | – | – | – | – | – | – | – | – | C[C@@H](C(=O)O)c1ccc(-c2ccccc2)c(F)c1 [tarenflurbil] | Rates of infection in patients receiving the drug [2]: significantly increased rates of infection
>50 | >50 | >50 | 50 | >50 | 50 | >25 | >50 | >50 | >50 | >50 | >50 | AIVVGGVMLGIIAGKNSGVDEAFFVLKQHHVEYGSDHRFEAD [reAβ42, Aβ42-1] | –
>50 | 12.5 | >50 | 6.25 | 3.13 | 3.13 | 0.78 | >50 | 3.13 | >50 | 6.25 | >50 | DAEFGHDSGFEVRHQKLVFFAEDVGSNKGAIIGLMVGGVVIA [roAβ42] | –
– | – | – | – | – | – | – | – | – | – | – | – | recombinant Aβ42: Recombinant human Aβ42 purchased from rPeptide | Antimicrobial activity compared with synthetic Aβ42 [3]: Equivalent findings
